Entries after “also recorded” stand apart in the source; their conditions may differ. Like-named read-outs stand apart in the source and are kept apart here. Bridge positions count the residues as written; N and C are the ends. Square brackets hold non-standard residues; d marks the D form. Ends that are not written are not given here. Peptide text beside a SMILES is read from it.
Experiments:
[1] = biological target: T1, purified DP IV (porcine kidney) (Sus scrofa, UniProt P22411); test: Cleavage of [Gln^3]Aβ1-11a by DP IV, MALDI-TOF; assay type: biochemical
T1 construct: purified DP IV (porcine kidney); from tissue; host or cells: porcine kidney
Protocol: (§1) Matrix-assisted laser desorption/ionization mass spectrometry was carried out using the Hewlett-Packard G2025 LD-TOF System with a linear time of flight analyzer. […] Samples (5 μl) were mixed with equal volumes of the matrix solution. For matrix solution we used DHAP/DAHC, prepared by solving 30 mg 2′,6′-dihydroxyacetophenone (Aldrich) and 44 mg diammonium hydrogen citrate (Fluka) in 1 ml acetonitrile/0.1% TFA in water (1/1, v/v). A small volume (=1 μl) of the matrix-analyte-mixture was transferred to a probe tip and immediately evaporated in a vacuum chamber (Hewlett-Packard G2024A sample prep accessory) to ensure rapid and homogeneous sample crystallization.

[2] = biological target: T2, QC (Homo sapiens, UniProt Q16769); test: LC/MS-analysis of pyroglutamate formation by QC; assay type: biochemical
[3] = biological target: T2, QC; test: Continuous spectrophotometric assay of QC substrate conversion (glutamate dehydrogenase coupled), human QC;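 note: initial rates read in microplates at 30 °C, with enzyme activity quantified against an ammonia calibration curve recorded under the same assay conditions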
Protocol: The initial velocities were evaluated and the enzymatic activity was determined from a standard curve of ammonia under assay conditions. All samples were measured at 30° C., using either the [sequence]luor Plus or the Sunrise (both from TECAN) reader for microplates. Kinetic data was evaluated using GraFit software.

[4] = test system: mammalian QC; details: Busby et al. 1987; cited from earlier work
[5] = biological target: T2, QC; test: Long-term Glu^1-cyclization of Aβ-derived peptides by recombinant human QC, MALDI-TOF; assay type: biochemical; set-up: The cDNA of the mature QC starting with codon 38 was fused in frame with the plasmid encoded 6×histidine tag; 6xHis; made in house; host or cells: Pichia pastoris X33 (pPICZαB); also E. coli M15 (pQE-31); details: for turnover of glutamate-containing peptide by QC: pH 5.2 and 6.5, respectively; for suppression of [pGlu^3]Aβ3-11a / [pGlu^3]Aβ3-21a formation from Aβ3-11a / Aβ3-21a: 5 mM benzimidazole, pH 5.2 and 6.5
Protocol: For long-term testing of Glu^1-cyclization, Aβ-derived peptides were incubated in 100 μl 0.1 M sodium acetate buffer, pH 5.2 or 0.1 M Bis-Tris buffer, pH 6.5 at 30° C. Peptides were applied in 0.5 mM [Aβ3-11a] or 0.15 mM [Aβ3-21a] concentrations, and 0.2 U QC was added all 24 hours.
In case of Aβ3-21a, the assays contained 1% DMSO. At different times, samples were removed from the assay tube, peptides extracted using ZipTips (Millipore) according to the manufacturer's recommendations, mixed with matrix solution (1:1 v/v) and subsequently the mass spectra recorded. Negative controls did either contain no QC or heat deactivated enzyme.
The QC-catalyzed formation of [pGlu^3]Aβ3-11a and [pGlu^3]Aβ3-21a was investigated at pH 5.2 and 6.5, respectively. If the QC-inhibitor benzimidazole was added to the solution before starting the assay by addition of QC, substrate conversion resulting in [pGlu^3]Aβ3-11a or [pGlu^3]Aβ3-21a was suppressed (FIGS. 15E and F). If QC was boiled before addition, formation of the pGlu-peptides was negligible (FIGS. 15A and B).

[6] = test system: DP IV and QC; test: Consecutive catalysis of DP IV and QC, crude porcine pituitary homogenate with added DPIV, MALDI-TOF; assay type: biochemical
Protocol: as §1

[7] = Protocol: H-Glu(OMe)-βNA and H-Glu-βNA. […] These fluorogenic substrates were analyzed fluorometrically, utilizing pyroglutamyl aminopeptidase as auxiliary enzyme.
[8] = biological target: T2, QC; test: Inhibition and inactivation of human QC by chelators; assay type: biochemical; set-up: The cDNA of the mature QC starting with codon 38 was fused in frame with the plasmid encoded 6×histidine tag; 6xHis; made in house; host or cells: Pichia pastoris X33 (pPICZαB); also E. coli M15 (pQE-31); details: for inhibition of human QC catalyzed substrate cyclization: competitive and time-dependent for the chelators
[9] = biological target: T2, QC; test: Fluorometric assay with pyroglutamyl aminopeptidase as auxiliary enzyme, human QC; assay type: biochemical; set-up: The cDNA of the mature QC starting with codon 38 was fused in frame with the plasmid encoded 6×histidine tag; 6xHis; made in house; host or cells: Pichia pastoris X33 (pPICZαB); also E. coli M15 (pQE-31); details: H-Gln-AMC as substrate
Description: Excitation/emission wavelengths were 320/410 nm.
(§2) Excitation/emission wavelengths were 380/460 nm.
H-Glu(OMe)-βNA and H-Glu-βNA.

[10] = biological target: T2, QC; test: Qualitative substrate conversion by MALDI-TOF mass spectrometry, human QC; assay type: biochemical; set-up: The cDNA of the mature QC starting with codon 38 was fused in frame with the plasmid encoded 6×histidine tag; 6xHis; made in house; host or cells: Pichia pastoris X33 (pPICZαB); also E. coli M15 (pQE-31)
Protocol: Matrix-assisted laser desorption/ionization mass spectrometry was carried out using the Hewlett-Packard G2025 LD-TOF System with a linear time of flight analyzer. The instrument was equipped with a 337 nm nitrogen laser, a potential acceleration source (5 kV) and a 1.0 m flight tube. Detector operation was in the positive-ion mode and signals were recorded and filtered using LeCroy 9350M digital storage oscilloscope linked to a personal computer. Samples (5 μl) were mixed with equal volumes of the matrix solution. For matrix solution we used DHAP/DAHC, prepared by solving 30 mg 2′,6′-dihydroxyacetophenone (Aldrich) and 44 mg diammonium hydrogen citrate (Fluka) in 1 ml acetonitrile/0.1% TFA in water (1/1, v/v). […]
In order to further investigate the specificity and selectivity of the QCs, peptides were synthesized comprising either a modified N-terminal glutaminyl residue or a modified amino acid in the second position. […] Due to the cyclization of the glutaminyl residue or its analog, respectively, a mass difference of the substrate and the product of catalysis is detected. In cases of ammonia liberation of one mole per mole of substrate, the conversion was also analyzed quantitatively using the spectrophotometric assay.

[11] = biological target: T2, QC; test: Inhibitor assay: Ki determination in the human QC catalyzed reaction; assay type: biochemical; set-up: The cDNA of the mature QC starting with codon 38 was fused in frame with the plasmid encoded 6×histidine tag; 6xHis; made in house; host or cells: Pichia pastoris X33 (pPICZαB); also E. coli M15 (pQE-31); details: text of example 7
Description: as §2

[12] = Table 1, physiological substrates
[13] = peptides comprising modified amino acids
[14] = Table 6, influence of substrate length

T2 sequence (Q16769 29-361): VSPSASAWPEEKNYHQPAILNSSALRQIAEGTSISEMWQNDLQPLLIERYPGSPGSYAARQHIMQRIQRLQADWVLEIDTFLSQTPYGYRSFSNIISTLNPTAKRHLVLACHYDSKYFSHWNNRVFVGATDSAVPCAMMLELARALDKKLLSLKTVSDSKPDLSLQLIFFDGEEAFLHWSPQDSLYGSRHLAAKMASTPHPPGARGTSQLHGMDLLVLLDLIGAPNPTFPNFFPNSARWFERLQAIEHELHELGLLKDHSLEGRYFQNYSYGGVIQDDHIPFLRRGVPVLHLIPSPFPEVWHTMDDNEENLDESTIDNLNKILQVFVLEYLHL
T1 sequence (P22411 whole entry): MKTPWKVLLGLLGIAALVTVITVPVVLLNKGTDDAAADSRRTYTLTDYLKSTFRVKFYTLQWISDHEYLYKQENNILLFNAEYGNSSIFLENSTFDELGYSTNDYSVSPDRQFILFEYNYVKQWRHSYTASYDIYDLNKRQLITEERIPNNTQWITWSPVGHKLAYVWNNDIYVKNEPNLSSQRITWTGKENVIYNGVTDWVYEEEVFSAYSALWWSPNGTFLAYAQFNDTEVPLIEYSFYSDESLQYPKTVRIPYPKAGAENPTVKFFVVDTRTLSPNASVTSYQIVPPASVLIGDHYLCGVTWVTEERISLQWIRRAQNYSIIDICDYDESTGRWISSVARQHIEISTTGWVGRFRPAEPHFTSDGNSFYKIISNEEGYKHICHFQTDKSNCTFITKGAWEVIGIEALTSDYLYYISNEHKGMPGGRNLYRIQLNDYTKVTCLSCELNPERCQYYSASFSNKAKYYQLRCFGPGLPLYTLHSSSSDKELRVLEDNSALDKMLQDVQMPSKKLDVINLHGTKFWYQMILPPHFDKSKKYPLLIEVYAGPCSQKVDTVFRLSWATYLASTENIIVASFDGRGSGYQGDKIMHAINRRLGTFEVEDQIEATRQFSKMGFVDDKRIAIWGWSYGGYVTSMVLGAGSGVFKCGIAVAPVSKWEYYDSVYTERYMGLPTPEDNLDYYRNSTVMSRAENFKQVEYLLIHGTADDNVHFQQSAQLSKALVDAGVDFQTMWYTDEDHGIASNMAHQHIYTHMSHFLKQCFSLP

Compound: DAQFRHDSGYE-NH2 [[Gln^3]Aβ1-11a]
- cleavage by DPIV under formation of [Gln^3]Aβ3-11a [1]: cleaving

Compound: [Gln^3]-glucagon(3-29): glucagon fragment 3-29 with N-terminal glutamine
- formation of N-terminal pyroglutamate by QC [2]: catalyzed by QC
- second order rate constant ([3]; in presence of 1% DMSO): 526000 M⁻¹ s⁻¹
- kcat/KM ([3]; recombinant human QC, buffer solution containing 1% DMSO): 526000 ± 17000 M⁻¹ s⁻¹

Compound: reduced 6-methylpterin
- inhibition of a mammalian QC [4]: Inhibition

Compound: [Gln^1]-GnRH: GnRH with N-terminal glutamine: QHWSYGL RP(G) amide
- kcat/KM [3, 12]: 1.3057e+06 ± 53200 M⁻¹ s⁻¹

Compound: EFRHDSGYEVHHQKLVFFA-NH2 [Aβ3-21a]
- turnover of glutamate-containing peptide by QC [5]: serve as QC-substrates

Compound: CC(C)[C@H](N)C(=O)N1CCCC1 [Val-Pyrr, Val-Pyrrolidide]
- prevention of DP IV-catalysed cleavage of [Gln^3]Aβ1-11a [1]: completely prevented
- prevention of DP IV-catalysed cleavage of [Gln^3]Aβ1-11a ([1]; listed as Val-Pyrrolidide): prevention
- [pGlu^3]Aβ3-11a formation from [Gln^3]Aβ1-11a in presence of catalytically active DP IV and QC [6]: not formed; also recorded: reduction

Compound: NC(=O)CC[C@H](N)C(=O)O [H-Gln-OH]
- kcat/KM ([3]; Table 5, n.r. = not reactive): n.r.

Compound: COC(=O)CC[C@H](N)C(=O)Nc1ccc2ccccc2c1 [H-Glu(OMe)-βNA, H-Glu(OMe)-β-naphthylamide]
- stability in Tris and Tricine buffers [7]: remarkable instability

Compound: NC(=O)CC[C@H](N)C(=O)N[C@@H](CCC(=O)O)C(=O)N1CCC[C@H]1C(N)=O [[Gln^1]-FPP] (H-Gln-Glu-Pro-NH2)
- Km [3, 12]: 87 ± 2 µM

Compound: O=C(O)CN(CCN(CC(=O)O)CC(=O)O)CC(=O)O [EDTA]
- inhibition of a mammalian QC [4]: did not inhibit
- inhibition of human QC catalyzed substrate cyclization [8]: did not show remarkable inhibition

Compound: H-Gln(NMe)-Phe-Lys-Ala-Glu-NH2 (H-[Gln(NMe)]FKAE-NH2; not fully specified; printed as H-Gln(NMe)-Phe-Lys-Ala-Glu-NH2)
- inhibition of human QC by the peptide [9]: not detected
- substrate conversion (cyclization) by human QC [10]: No substrate conversion

Compound: EFRHDSGYE-NH2 [Aβ3-11a]
- turnover of glutamate-containing peptide by QC [5]: serve as QC-substrates

Compound: H-Gln-cyclo(Nε-Lys-Arg-Pro-Ala-Gly-Phe) (H-QKRPAGF; lactam 2-C; SMILES C[C@@H]1NC(=O)[C@@H]2CCCN2C(=O)[C@H](CCCNC(=N)N)NC(=O)[C@@H](NC(=O)[C@@H](N)CCC(N)=O)CCCCNC(=O)[C@H](Cc2ccccc2)NC(=O)CNC1=O)
- kcat (turnover number) [3, 13]: 22.8 ± 10.6 s⁻¹
- kcat/KM-value [3, 13]: 95000 ± 3000 M⁻¹ s⁻¹

Compound: C[C@H](NC(=O)[C@@H](N)CCC(N)=O)C(N)=O [H-Gln-Ala-NH2] (H-Gln-Ala-NH2)
- Km [3, 14]: 155 ± 9 µM

Compound: c1ccc2[nH]cnc2c1 [benzimidazole]
- suppression of [pGlu^3]Aβ3-11a / [pGlu^3]Aβ3-21a formation from Aβ3-11a / Aβ3-21a [5]: suppressed
- suppression of [pGlu^3]Aβ3-11a / [pGlu^3]Aβ3-21a formation from Aβ3-11a / Aβ3-21a ([5]; listed as Benzimidazole): suppressing

Compound: Cc1cc(=O)oc2cc(NC(=O)[C@@H](N)CCC(N)=O)ccc12 [H-Gln-AMC]
- kcat/KM ([3]; Table 5, n.r. = not reactive): 98000 ± 2000 M⁻¹ s⁻¹

Compound: O=C(O)c1cccc(C(=O)O)n1 [dipicolinic acid]
- inhibition of human QC catalyzed substrate cyclization [8]: abolished
- inactivation of human QC after extensive dialysis ([8]; dialysis against 5 mM): almost completely inactivated

Compound: COC(=O)CC[C@H](N)C(=O)N[C@@H](Cc1ccccc1)C(=O)N[C@@H](CCCCN)C(=O)N[C@@H](CCCNC(=N)N)C(=O)N[C@@H](CC(C)C)C(=O)N[C@@H](C)C(N)=O [H-Glu(OMe)-Phe-Lys-Arg-Leu-Ala-NH2] (H-E(OMe)FKRLA-NH2)
- inhibition of human QC by the peptide [9]: not inhibited

Compound: Cn1cnc(CCN)c1 [1-methyl-4-(β-aminoethyl)-imidazole]
- inhibition of human QC, in words [11]: complete loss of inhibitory activity

Compound: Oc1cccc2cccnc12 [8-hydroxyquinoline]
- inhibition of human QC catalyzed substrate cyclization [8]: abolished

Compound: H-EFKRLA-NH2 [H-Glu-Phe-Lys-Arg-Leu-Ala-NH2]
- inhibition of human QC by the peptide [9]: not inhibited

Compound: C[C@H](NC(=O)[C@H](C)NC(=O)[C@@H](N)CCC(N)=O)C(N)=O [H-Gln-Ala-Ala-NH2] (H-Gln-Ala-Ala-NH2)
- Km [3, 14]: 87 ± 3 µM

Compound: [Gln^5]-substance P(5-11): substance P fragment 5-11 with N-terminal glutamine (QQFFGLM; ends and bridges not checked)
- formation of N-terminal pyroglutamate by QC [2]: transformed by QC

Compound: CC(C)C[C@H](NC(=O)[C@H](CCCNC(=N)N)NC(=O)[C@H](CCCCNC(=O)[C@@H](N)CCC(N)=O)NC(=O)[C@@H](N)CCC(N)=O)C(=O)N[C@@H](C)C(N)=O [H-Gln-Lys(Gln)-Arg-Leu-Ala-NH2] (H-QK(Gln)RLA-NH2)
- substrate conversion (cyclization) by human QC [10]: converted

Compound: NC(=O)CC[C@H](N)C(=O)N[C@@H](Cc1c[nH]cn1)C(=O)N1CCC[C@H]1C(N)=O [[Gln^1]-TRH] (H-Gln-His-Pro-NH2)
- Km [3, 12]: 90 ± 4 µM

— US7381537B2, “Use of inhibitors of glutaminyl cyclases for treatment and prevention of disease” (Probiodrug AG, priority 2003, dated 2008)
